# Assay results as given in publication PMC2613973 (Insect biochemistry and molecular biology, 2008).
# Legend:
# Test in all cases: Isothermal titration calorimetry
# Type in all cases: binding
# [1] = target: Moubatin (Ornithodoros moubata, UniProt Q04669)
# [2] = target: T1, TSGP2 (Ornithodoros kalahariensis, UniProt Q8I9U1)
# T1 sequence (Q8I9U1 20-163): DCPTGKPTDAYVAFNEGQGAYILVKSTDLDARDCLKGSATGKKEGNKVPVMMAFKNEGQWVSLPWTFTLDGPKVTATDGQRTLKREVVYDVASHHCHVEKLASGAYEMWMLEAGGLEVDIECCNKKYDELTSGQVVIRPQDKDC
# [3] = target: T2, TSGP3 (Ornithodoros kalahariensis, UniProt Q8I9U0)
# T2 sequence (Q8I9U0 20-163): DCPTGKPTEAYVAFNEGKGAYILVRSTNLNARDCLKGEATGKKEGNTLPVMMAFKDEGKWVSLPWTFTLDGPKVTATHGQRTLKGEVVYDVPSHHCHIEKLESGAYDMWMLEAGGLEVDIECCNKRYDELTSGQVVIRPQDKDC
# [4] = target: T3, Moubatin-like 3 (Ornithodoros parkeri, UniProt A6N9T1)
# T3 sequence (A6N9T1 20-176): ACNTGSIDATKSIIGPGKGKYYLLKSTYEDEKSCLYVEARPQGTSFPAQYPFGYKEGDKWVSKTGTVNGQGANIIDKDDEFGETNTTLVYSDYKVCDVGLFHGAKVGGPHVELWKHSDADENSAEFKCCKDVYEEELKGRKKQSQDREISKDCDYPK
# [5] = target: TSGP2_R85G (Ornithodoros kalahariensis, UniProt Q8I9U1, R104G)
# [6] = target: TSGP3_G85R (Ornithodoros kalahariensis, UniProt Q8I9U0, G104R)
# [7] = target: T2_ML (Ornithodoros kalahariensis, UniProt Q8I9U1, A132G/E131N/E136D/G133S/G134A/L130S/L135D/M127Q/M129Q/V137K)
# [8] = target: T2_M4 (Ornithodoros kalahariensis, UniProt Q8I9U1, K92N/T101K/T85M/T94V)
# [9] = target: T2_H95D (Ornithodoros kalahariensis, UniProt Q8I9U1, H114D)
Structure (SMILES),Kd [1],Kd [2],Kd [3],Kd [4],Kd [5],other results
"CCCCC/C=C\C/C=C\C/C=C\C/C=C\CCCC(=O)O [Arachidonic acid, arachidonic acid (AA)]",34 ± 6 nM,69 ± 7 nM,59 ± 24 nM,–,–,–
"NCCc1c[nH]cn1 [Histamine, histamine]",–,–,–,106 ± 3 nM,–,–
"CCCCC/C=C\C[C@@H](O)/C=C/C=C/C=C\[C@@H](O)CCCC(=O)O [LTB4, leukotriene B4]",16 ± 3 nM,18 ± 3 nM,21 ± 5 nM,–,10 ± 1.6 nM,Kd [6]: 228 ± 36 nM; Kd [7]: 12 ± 2 nM; Kd [8]: 6 ± 0.8 nM; Kd [9]: 12 ± 2 nM
"NCCc1c[nH]c2ccc(O)cc12 [Serotonin, serotonin (5-hydroxytryptamine, 5-HT)]",–,–,–,116 ± 13 nM,–,–
"CCCCC[C@H](O)/C=C/[C@@H]1[C@@H](C/C=C\CCCC(=O)O)[C@H]2CO[C@@H]1C2 [U46619, 9,11-dideoxy-9α,11α-methanoepoxy prostaglandin F2α (stable thromboxane A2 analog)]",20 ± 3 nM,–,9 ± 1 nM,–,7 ± 1 nM,–
"CCCCC[C@H](O)/C=C/C1CC2CC(C2)C1C/C=C\CCCC(=O)O (stereo partly drawn) [cTXA2, carbocyclic thromboxane A2]",24 ± 4 nM,–,5 ± 0.7 nM,–,–,–
